Among the test systems are NCI-H522; RXF 393; SNB-19; SF-268; Malme-3M; SF-539; ACHN; BT-549; OVCAR-4; UACC-62; HOP-62; MCF7; OVCAR-3; UACC-257; M14; SK-MEL-28; COLO 205; OVCAR-8; HT-29; HCC 2998.
Holding throughout (assay): NCI-60 cell line screen, 48 h

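Exposure lasted 48 hours, with cells grown in 96-well plates and compounds tested at five concentrations. At the GI50, growth is halved.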 Calls of active or inactive are those of the source. Cut-off read from the data, not from the text of the source: active = GI50 up to about 1.1 µM and inactive = higher.

From ChEMBL document CHEMBL1201862, “PubChem BioAssay data set” (2004) come the findings set out here.

`CCc1ncc(CO)n1Cc1cccc2ccccc12`: the GI50 in the assay with NCI-H522, with RXF 393, in the assay on SNB-19, with SF-268, in the assay on Malme-3M and with SF-539 was > 100 µM (inactive) each time. For the same compound, the GI50 in the assay on ACHN, in the assay on BT-549, with OVCAR-4, in the assay with UACC-62, in the assay on HOP-62 and with MCF7 was > 100 µM (inactive) throughout. The GI50 with OVCAR-3 was > 100 µM (inactive); in the assay with UACC-257, 81.8 µM (inactive); in the assay on M14 it was > 100 µM (inactive); with SK-MEL-28, > 100 µM (inactive); in the assay on COLO 205, > 100 µM (inactive); with OVCAR-8, > 100 µM (inactive). In the assay on HT-29, the GI50 is 96.8 µM (inactive).

In the case of `CC(=O)c1sc2c(c1OC(=O)c1ccc(Cl)cc1)c(=O)n(-c1ccccc1)c(=S)n2-c1ccccc1`, the GI50 is 1.53 µM (inactive) in the assay on NCI-H522; 2.22 µM (inactive) in the assay with RXF 393; 3.56 µM (inactive) in the assay on SNB-19; 4.56 µM (inactive) with SF-268; 1.94 µM (inactive) in the assay with Malme-3M; 19.1 µM (inactive) in the assay on HCC 2998. The GI50 is 1.87 µM (inactive) with SF-539; 2.96 µM (inactive) with ACHN; 22.3 µM (inactive) in the assay with OVCAR-4; 15.7 µM (inactive) in the assay on UACC-62; 3.85 µM (inactive) in the assay with HOP-62; 23.2 µM (inactive) with MCF7. The GI50 with OVCAR-3 was 14.2 µM (inactive); in the assay with UACC-257, 5.19 µM (inactive); in the assay with M14, 1.18 µM (inactive); in the assay with SK-MEL-28, 2.79 µM (inactive); in the assay with COLO 205, 3.53 µM (inactive); in the assay on OVCAR-8, 3.48 µM (inactive). Besides, the GI50 with HT-29 was 0.946 µM (active).

Take `Cc1ccc(C2SCc3nc4ccccc4n32)cc1` (stereo not drawn): the GI50 was 4.74 µM (inactive) in the assay on NCI-H522; 1.98 µM (inactive) in the assay with RXF 393; 4.65 µM (inactive) in the assay with SNB-19; 11.7 µM (inactive) with SF-268; 4.04 µM (inactive) with Malme-3M; 10.8 µM (inactive) in the assay on HCC 2998. For the same compound, the GI50 is 2.29 µM (inactive) with SF-539; 5.32 µM (inactive) in the assay with ACHN; 8.77 µM (inactive) in the assay with OVCAR-4; 2.43 µM (inactive) in the assay with UACC-62; 3.44 µM (inactive) in the assay with HOP-62; 4.68 µM (inactive) in the assay on MCF7. Further, the GI50 in the assay with OVCAR-3 is 4.72 µM (inactive); in the assay with UACC-257, 4.79 µM (inactive); in the assay with M14 it was 4.49 µM (inactive); in the assay on SK-MEL-28, 6.62 µM (inactive); in the assay with COLO 205 it was 1.36 µM (inactive); with OVCAR-8, 3.66 µM (inactive). In addition, the GI50 with HT-29 was 2.47 µM (inactive).

With `CC1=NN(c2cccc(Cl)c2)C(=N/c2nc3ccccc3s2)/C1=C\C=C\c1ccccc1`, the GI50 was 28.8 µM (inactive) in the assay with NCI-H522; 51.4 µM (inactive) with RXF 393; 35.8 µM (inactive) with SF-268; 43.8 µM (inactive) with SF-539; 28 µM (inactive) in the assay on ACHN; 45.1 µM (inactive) in the assay on OVCAR-4. The GI50 in the assay on HOP-62 is 30.8 µM (inactive); in the assay with MCF7, 25.7 µM (inactive); in the assay with OVCAR-3, 27 µM (inactive); in the assay on UACC-257 it was 31.5 µM (inactive); with M14, 42.3 µM (inactive); in the assay on SK-MEL-28, 29.3 µM (inactive). Moreover, the GI50 with OVCAR-8 was 36.1 µM (inactive); in the assay with HT-29, 33.5 µM (inactive).

In the case of `Cn1c(=O)oc2cc(C(=O)CN3CCN(Cc4ccc5c(c4)OCO5)CC3)c(Cl)cc21`, the GI50 in the assay on RXF 393, in the assay on SNB-19, in the assay with SF-268, with Malme-3M, with HCC 2998 and with SF-539 was > 100 µM (inactive) each time. For the same compound, the GI50 with ACHN, in the assay on UACC-62, in the assay with HOP-62, in the assay with MCF7 and in the assay on COLO 205 was > 100 µM (inactive) each time.

As to `O=C(/C=C/c1ccc(O)c([N+](=O)[O-])c1)CC(=O)/C=C/c1ccc(O)c([N+](=O)[O-])c1`, the GI50 in the assay on NCI-H522 was 36.3 µM (inactive); in the assay with RXF 393 it was 44.4 µM (inactive); in the assay with SNB-19 it was 88.9 µM (inactive); in the assay on SF-268 it was 54.6 µM (inactive); in the assay on SF-539, > 100 µM (inactive); with ACHN, > 100 µM (inactive). The GI50 with BT-549 was > 100 µM (inactive); in the assay on OVCAR-4, 79.3 µM (inactive); with UACC-62, 88.1 µM (inactive); in the assay with HOP-62 it was 48.9 µM (inactive); in the assay on MCF7, 53.5 µM (inactive); with OVCAR-3, 26.6 µM (inactive). For the same compound, the GI50 in the assay with UACC-257 is > 100 µM (inactive); in the assay on M14 it was 65.8 µM (inactive); in the assay on SK-MEL-28, 33.9 µM (inactive); in the assay on COLO 205 it was 47.4 µM (inactive); in the assay on OVCAR-8, 19.8 µM (inactive); in the assay on HT-29, 42.7 µM (inactive).

Take `Cc1cc(C)c2c(n1)S(=O)(=O)N(CCCN1CCN(c3cccc(Cl)c3)CC1)C(C(=O)c1ccccc1)=C2O`: the GI50 in the assay with NCI-H522 is 24.8 µM (inactive); in the assay with SNB-19 it was 30.2 µM (inactive); in the assay with SF-268 it was 39 µM (inactive); with Malme-3M it was 64.3 µM (inactive); in the assay on SF-539, 40.6 µM (inactive); with ACHN, 30.6 µM (inactive). The GI50 is 52.6 µM (inactive) in the assay on BT-549; 24.7 µM (inactive) in the assay with OVCAR-4; 36.1 µM (inactive) in the assay with UACC-62; 36.6 µM (inactive) with HOP-62; 29.8 µM (inactive) in the assay on MCF7; 22.8 µM (inactive) in the assay on OVCAR-3. Also, the GI50 in the assay on UACC-257 was 19.3 µM (inactive); with M14 it was 25.6 µM (inactive); with SK-MEL-28, 44.4 µM (inactive); in the assay with COLO 205, 18.7 µM (inactive); in the assay with OVCAR-8, 36.6 µM (inactive); in the assay on HT-29, 30.8 µM (inactive).

With `O=C(O)CCCC(=O)Nn1c(Cc2ccc(Cl)cc2)n[nH]c1=O`, the GI50 with NCI-H522 was 71.8 µM (inactive); in the assay with RXF 393 it was > 100 µM (inactive); in the assay on SF-268, > 100 µM (inactive); in the assay on Malme-3M it was > 100 µM (inactive); in the assay with ACHN it was > 100 µM (inactive); with BT-549 it was > 100 µM (inactive). Moreover, the GI50 in the assay on OVCAR-4, with UACC-62, in the assay on HOP-62, in the assay with MCF7, in the assay with OVCAR-3 and in the assay with UACC-257 was > 100 µM (inactive) in each case. Besides, the GI50 in the assay on M14, in the assay on SK-MEL-28, with COLO 205, in the assay with OVCAR-8 and with HT-29 was > 100 µM (inactive) throughout.

Turning to `COc1cccc(C2c3cc4c(cc3OC(N3CCCC3)C2c2ccccc2)OCO4)c1O` (stereo not drawn), the GI50 in the assay on NCI-H522 is 12 µM (inactive); with SNB-19, 5.57 µM (inactive); in the assay with SF-268, 9.02 µM (inactive); in the assay on HCC 2998 it was 11 µM (inactive); in the assay with SF-539 it was 6.78 µM (inactive); in the assay on ACHN, 3.72 µM (inactive). The GI50 is 14.1 µM (inactive) with UACC-62; 21 µM (inactive) in the assay on HOP-62; 8.65 µM (inactive) in the assay with MCF7; 3.34 µM (inactive) in the assay with OVCAR-3; 11.4 µM (inactive) in the assay with UACC-257; 11 µM (inactive) in the assay with M14. For the same compound, the GI50 with SK-MEL-28 was 13 µM (inactive); with COLO 205, 7.24 µM (inactive); in the assay with OVCAR-8, 10.3 µM (inactive); with HT-29, 7.43 µM (inactive).

Turning to `CC(=O)OCC1OC(N2C(=O)C(=O)c3ccccc32)C(OC(C)=O)C(OC(C)=O)C1OC(C)=O` (stereo not drawn), the GI50 in the assay with NCI-H522, with RXF 393, in the assay with SNB-19, with SF-268, in the assay with Malme-3M and in the assay with HCC 2998 was > 100 µM (inactive) throughout. In addition, the GI50 with SF-539, in the assay with ACHN, with OVCAR-4, in the assay on UACC-62, in the assay with HOP-62 and with OVCAR-3 was > 100 µM (inactive) in each case. Moreover, the GI50 with UACC-257, with M14, in the assay with SK-MEL-28, with COLO 205, with OVCAR-8 and in the assay on HT-29 was > 100 µM (inactive) in each case.

For the compound `CC1(C)[C@@H](Cn2cnc3c(Cl)nc(N)nc32)CC[C@@]1(C)CO`, the GI50 was 65.8 µM (inactive) with RXF 393; 83.4 µM (inactive) with SNB-19; 20.8 µM (inactive) in the assay on SF-268; 22.5 µM (inactive) in the assay with HCC 2998; > 100 µM (inactive) in the assay on SF-539; > 100 µM (inactive) in the assay with ACHN. Besides, the GI50 in the assay with OVCAR-4 was > 100 µM (inactive); with UACC-62, 20 µM (inactive); with HOP-62, > 100 µM (inactive); in the assay on MCF7 it was > 100 µM (inactive); in the assay with OVCAR-3 it was 33 µM (inactive); with UACC-257 it was 30.4 µM (inactive). Moreover, the GI50 in the assay with M14 is 40.3 µM (inactive); in the assay on SK-MEL-28 it was 43.5 µM (inactive); with COLO 205 it was 51.5 µM (inactive).

Regarding `c1csc(-c2nccc3c2[nH]c2ccccc23)c1`, the GI50 in the assay with NCI-H522 is 15.8 µM (inactive); with RXF 393, 16.3 µM (inactive); in the assay with SNB-19 it was 27.7 µM (inactive); with SF-268, 27 µM (inactive); in the assay with Malme-3M, 24.2 µM (inactive); in the assay with HCC 2998 it was 21.8 µM (inactive). Also, the GI50 was 16.4 µM (inactive) with SF-539; 24.5 µM (inactive) in the assay on ACHN; 18.2 µM (inactive) in the assay on OVCAR-4; 30.2 µM (inactive) with UACC-62; 18.3 µM (inactive) in the assay on HOP-62; 3.35 µM (inactive) in the assay with MCF7. Further, the GI50 in the assay on OVCAR-3 is 20.5 µM (inactive); in the assay with UACC-257 it was 21.2 µM (inactive); in the assay with M14, 17.8 µM (inactive); with SK-MEL-28, 25.6 µM (inactive); in the assay with COLO 205, 14.8 µM (inactive); with OVCAR-8, 20.5 µM (inactive). For the same compound, in the assay on HT-29, the GI50 is 15.1 µM (inactive).
